Assays:
[1] = Dose–response curve of purified […]s with S-β-phenylalanine; assay type: biochemical
Description: (§1) Fig. 4 Engineering ligand specificity of GrsA-PheA for generating […]s. a The selectivity-conferring code of Phe and Leu A domains. b–f Dose–response curve of purified […]s with increasing concentrations of ligands in 100 mM Tris-HCl buffer (pH=7.5). All data shown are means ± S.D. (n = 3 biologically independent samples). g A series of […] reactions was tested to show the […]’s specificity with 20 proteinogenic amino acids. The values on the heatmap represent the ΔF/F0 value normalized to each […]’s maximal ΔF/F0 value ((ΔF/F0)/maximal ΔF/F0). The concentrations of 20 amino acids were 100 μM. The color indicates the average value of three independent biological replicates after 15 min. All data shown are means ± S.D. (n = 3 biologically independent samples). Source data are provided as a Source data file.
(§2) The study conducted dose–response curve, substrate specificity, and fluorescent spectrum analyses in 100-mM Tris buffer (pH = 7.5), while pH stability experiments were performed in 100-mM Tris buffer at three different pH values (6.5, 7.5, and 8.5) at room temperature. […] protein at a concentration of 0.75 μM, various small molecule concentrations, 1 mM ATP, and 2.5 mM MgCl2 were used in the experiments. Fluorescent signals were detected using a Microplate Reader (Synergy H4, Bio Tek) at an excitation/emission wavelength of 460 nm/510 nm or 480 nm/510 nm. The dose-response curve was determined immediately after the addition of the analyte. The total duration of the measurement was 15 min, with readings taken at one-minute intervals. The dose-response curve was plotted using the fluorescence values obtained after achieving stability in the fluorescence signal. The dose-response curves were fitted using the logistic model LOGISTIC5 available in Origin 2021, which could provide a more adequate fit to asymmetric dose-response data[62],[63]. Excitation spectra were scanned from 300 to 540 nm with a step size of 5 nm, and the emission wavelength was set to 560 nm. Emission spectra were scanned from 470 to 700 nm with a step size of 5 nm, and the excitation wavelength was set to 450 nm. The thermal stability of […] was analyzed using the UNcle multifunctional protein stability analysis system. Measurements were performed in 20 mM MOPS buffer with 2 mM DTT at a sample concentration of 1 mg/mL. Absolute fluorescence quantum yields were measured using an absolute photoluminescence quantum yield spectrometer (FS5, Edinburgh).

[2] = Substrate (ligand) specificity of […]s; assay type: biochemical; settings: Supplementary Fig. 3 c; substrate specificity
Description: as §1
Ligand specificity is an important biosensors feature. Generally, the NRPS A domains have high specificity for their substrates because they are the first “gatekeeper” of NRPSs and ensure that the correct monomers are activated and thioesterified[32],[33]. Therefore, we speculated that this property would be inherited by our […]s because the ligand-binding pockets were unchanged during the […] creation process. Twenty proteinogenic amino acids were used to test the ligand specificity of […]s. […] We also investigated the dependence of […]s on Mg^2+ and ATP (Supplementary Fig. 4). […] This phenomenon corroborates with the distinct conformational changes observed in Hinge A of Nt4CL2 (Mg^2++ATP) (PDB ID: 5BSM) and Nt4CL2 (Coumaroyl-AMP) (PDB ID: 5BST) reported in the literature (Supplementary Fig. 4k), where the direction of motion in hinge A differs. […] During the determination of quantum yield, we observed that the absolute quantum yield of the […] variants ranged from 0.3 to 0.6 upon addition of the respective substrates, which show no significant difference with that reported in literature. The specific values are provided in Supplementary Table 2.
as §2

[3] = target: T1, GECFINDER-Phe3 (Aneurinibacillus migulanus, UniProt P0C061); assay: Fluorescence dose-response of purified cpEGFP sensors (0.75 uM) in 100 mM Tris-HCl pH 7.5, room temperature, 1 mM ATP, 2.5 mM MgCl2; excitation 400, 460 or 480 nm by sensor, emission 510 nm; logistic five-parameter fit.; assay type: biochemical; settings: n = 3
T1 construct: gene grsA; GrsA-PheA-PCP; cpEGFP inserted in hinge B, linkers VF-QS
T1 sequence (P0C061 1-617): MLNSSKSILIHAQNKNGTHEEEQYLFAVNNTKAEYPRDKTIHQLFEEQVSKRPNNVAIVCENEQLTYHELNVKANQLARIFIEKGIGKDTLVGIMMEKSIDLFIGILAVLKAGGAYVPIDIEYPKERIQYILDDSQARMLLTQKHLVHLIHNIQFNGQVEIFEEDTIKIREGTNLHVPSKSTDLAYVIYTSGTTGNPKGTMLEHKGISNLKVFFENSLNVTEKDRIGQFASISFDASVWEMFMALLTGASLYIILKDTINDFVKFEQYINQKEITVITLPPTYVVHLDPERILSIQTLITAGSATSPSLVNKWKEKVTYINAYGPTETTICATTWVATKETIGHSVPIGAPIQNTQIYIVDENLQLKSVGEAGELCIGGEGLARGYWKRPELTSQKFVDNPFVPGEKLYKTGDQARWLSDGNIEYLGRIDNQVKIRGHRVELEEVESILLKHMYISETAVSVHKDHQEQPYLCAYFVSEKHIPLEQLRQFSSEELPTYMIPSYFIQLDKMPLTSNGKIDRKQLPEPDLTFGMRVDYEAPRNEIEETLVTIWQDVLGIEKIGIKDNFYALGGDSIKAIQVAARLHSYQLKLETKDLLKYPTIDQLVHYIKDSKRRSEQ
Description: (§3) Fig. 3 Dose–response curves and fluorescence spectrums of […]s. a, c, e, g, i, k Dose–response curve of purified […]s with increasing concentrations of ligand in 100 mM Tris-HCl buffer (pH=7.5). The normalized ΔF/F0 value increased after ligand binding. All data shown are mean ± S.D. (n = 3 biologically independent samples). b, d, f, h, j, l The fluorescence spectra of […]s changed as the ligand concentration increased. All data shown are mean ± S.D. (n = 3 biologically independent samples). Source data are provided as a Source data file.
as §2

[4] = target: T2, GECFINDER-Tyr (Aneurinibacillus migulanus, UniProt P0C061, W239S); assay: Fluorescence dose-response of purified binding-pocket-engineered sensors (0.75 uM) in 100 mM Tris-HCl pH 7.5, room temperature, 1 mM ATP, 2.5 mM MgCl2, excitation 460 or 480 nm, emission 510 nm; logistic five-parameter fit.; assay type: biochemical; settings: n = 3
T2 construct: gene grsA
Description: as §1, §2

[5] = target: T3, GECFINDER-Glu (Bacillus subtilis, UniProt P39845); assay: Fluorescence dose-response of purified cpEGFP sensors (0.75 uM) in 100 mM Tris-HCl pH 7.5, room temperature, 1 mM ATP, 2.5 mM MgCl2; excitation 400, 460 or 480 nm by sensor, emission 510 nm; logistic five-parameter fit.; assay type: biochemical; settings: n = 3
T3 construct: gene ppsA; PpsA-GluA-PCP; cpEGFP inserted, linkers HS-WL
Description: as §3, §2

[6] = Fluorescence spectra / excitation wavelength scan of […]s; assay type: physicochemical; settings: Wavelength 300 nm
Description: Fig. 3 Dose–response curves and fluorescence spectrums of […]s. a, c, e, g, i, k Dose–response curve of purified […]s with increasing concentrations of ligand in 100 mM Tris-HCl buffer (pH=7.5). […] All data shown are mean ± S.D. (n = 3 biologically independent samples). Source data are provided as a Source data file.
as §2

[7] = Response of purified […] to proline; assay type: biochemical
Description: as §3, §2

N[C@@H](CC(=O)O)c1ccccc1 [S-β-Phe]
AVE, dose-response Fig. 4 b ([1]; substrate S-β-Phe 0.0001 μM): -0.0002792
AVE, dose-response Fig. 4 b ([1]; substrate S-β-Phe 0.001 μM): -0.0008239
AVE, dose-response Fig. 4 b ([1]; substrate S-β-Phe 0.01 μM): -0.003663
AVE, dose-response Fig. 4 b ([1]; substrate S-β-Phe 0.1 μM): -0.01739
AVE, dose-response Fig. 4 b ([1]; substrate S-β-Phe 1 μM): 0.02113
AVE, dose-response Fig. 4 b ([1]; substrate S-β-Phe 10 μM): 0.3498
AVE, dose-response Fig. 4 b ([1]; substrate S-β-Phe 50 μM): 0.6956
AVE, dose-response Fig. 4 b ([1]; substrate S-β-Phe 100 μM): 0.8621
AVE, dose-response Fig. 4 b ([1]; substrate S-β-Phe 500 μM): 0.9305
AVE, dose-response Fig. 4 b ([1]; substrate S-β-Phe 1000 μM): 0.8832
AVE, dose-response Fig. 4 b ([1]; substrate S-β-Phe 5000 μM): 0.7695
AVE, dose-response Fig. 4 b ([1]; substrate S-β-Phe 10000 μM): 0.7514
AVE, dose-response Fig. 4 f ([1]; substrate S-β-Phe 0.0001 μM): -0.0001186
AVE, dose-response Fig. 4 f ([1]; substrate S-β-Phe 0.001 μM): -0.005617
AVE, dose-response Fig. 4 f ([1]; substrate S-β-Phe 0.01 μM): 0.008482
AVE, dose-response Fig. 4 f ([1]; substrate S-β-Phe 0.1 μM): 0.09012
AVE, dose-response Fig. 4 f ([1]; substrate S-β-Phe 1 μM): 0.4944
AVE, dose-response Fig. 4 f ([1]; substrate S-β-Phe 10 μM): 1.228
AVE, dose-response Fig. 4 f ([1]; substrate S-β-Phe 50 μM): 1.751
AVE, dose-response Fig. 4 f ([1]; substrate S-β-Phe 100 μM): 1.939
AVE, dose-response Fig. 4 f ([1]; substrate S-β-Phe 500 μM): 2.2005
AVE, dose-response Fig. 4 f ([1]; substrate S-β-Phe 1000 μM): 2.208
AVE, dose-response Fig. 4 f ([1]; substrate S-β-Phe 5000 μM): 2.26
AVE, dose-response Fig. 4 f ([1]; substrate S-β-Phe 10000 μM): 2.258
fluorescence response of GECFINDER to each substrate, AVE of 3 repeats [2]: 2.126

N[C@@H](Cc1ccc(O)cc1)C(=O)O [Tyr, tyrosine]
EC50 [3]: 225 ± 17.9 µM
EC50 [4]: 89.8 ± 6.71 µM

N[C@@H](CCC(=O)O)C(=O)O [Glu, glutamic acid]
EC50 [5]: 42.9 ± 3.93 µM

O=C(O)[C@@H]1CCCN1 [Pro]
Wavelength scan, AVE of Repeat 1-3 (Fig. 3 h) ([6]; 0.0002 μM Pro): 1526
Wavelength scan, AVE of Repeat 1-3 (Fig. 3 h) ([6]; 20 μM Pro): 1565
Wavelength scan, AVE of Repeat 1-3 (Fig. 3 h) ([6]; 2000 μM Pro): 1543.33
Dose-response, AVE of Repeat 1-3 (Fig. 3 g) ([7]; Pro 0.0002 μM): -7.17e-17
Dose-response, AVE of Repeat 1-3 (Fig. 3 g) ([7]; Pro 0.002 μM): 0.0174
Dose-response, AVE of Repeat 1-3 (Fig. 3 g) ([7]; Pro 0.02 μM): 0.02154
Dose-response, AVE of Repeat 1-3 (Fig. 3 g) ([7]; Pro 0.2 μM): 0.03875
Dose-response, AVE of Repeat 1-3 (Fig. 3 g) ([7]; Pro 2 μM): 0.04783
Dose-response, AVE of Repeat 1-3 (Fig. 3 g) ([7]; Pro 20 μM): 0.05475
Dose-response, AVE of Repeat 1-3 (Fig. 3 g) ([7]; Pro 100 μM): 0.06466
Dose-response, AVE of Repeat 1-3 (Fig. 3 g) ([7]; Pro 200 μM): 0.07263
Dose-response, AVE of Repeat 1-3 (Fig. 3 g) ([7]; Pro 500 μM): 0.09025
Dose-response, AVE of Repeat 1-3 (Fig. 3 g) ([7]; Pro 1000 μM): 0.09711
Dose-response, AVE of Repeat 1-3 (Fig. 3 g) ([7]; Pro 2000 μM): 0.09414
Dose-response, AVE of Repeat 1-3 (Fig. 3 g) ([7]; Pro 4000 μM): 0.08171
fluorescence response of GECFINDER to each substrate, AVE of 3 repeats [2]: -0.002038

— paper PMC10590383, “Repurposing conformational changes in ANL superfamily enzymes to rapidly generate biosensors for organic and amino acids” (Nature Communications, 2023)
